According to US20060004029A1, “Nitrogen-containing aromatic derivatives” (priority 2003, published 2006):

Tested on: KP-1/VEGF cells
Assay: Antitumor activity on KP-1/VEGF cells in subcutaneous xenograft models
Assay type: in vivo, mouse
Conditions: oral twice a day, 2 weeks (5 days per week), Balb/c (nu/nu) mice
Method: VEGF high-expressing pancreatic cancer cells (KP-1/VEGF) suspended in PBS at a concentration of 1×10^7 cells/ml were transplanted under the right flank skin of 6-week-old female Balb/c (nu/nu) mice in a volume of 0.1 ml. When the tumor volume reached approximately 100 mm^3, the test substance was orally administered twice a day over a period of 2 weeks with a schedule of 5 days per week. The test substance was suspended in 0.5% methyl cellulose for an administered volume of 0.1 ml/10 g body weight. The tumor size was measured twice a week using a micrometer caliper. The tumor volume was determined by measuring the long and short diameters of the tumor with a micrometer caliper, and calculating ½×(long diameter×short diameter×short diameter). The experiment was conducted using 10 mice in the control (solvent-administered) group and 5 mice in each test substance-administered group.

SMILES	proportion of the tumor volume after administering test substance to that of control (6 mg/kg/day) [%]	proportion of the tumor volume after administering test substance to that of control (20 mg/kg/day) [%]	proportion of the tumor volume after administering test substance to that of control (60 mg/kg/day) [%]	proportion of the tumor volume after administering test substance to that of control (200 mg/kg/day) [%]
CNC(=O)n1ccc2cc(Oc3ccnc(NC(=O)N4CCC(N5CCCC5)CC4)c3)ccc21 [Example 46, N1-Methyl-5-(2-(((4-(pyrrolidin-1-yl)piperidin-1-yl)carbonyl)amino)pyridin-4-yloxy)-1H-1-indolecarboxamide]	77.7	59.3	60.0	36.2
CNC(=O)n1ccc2cc(Oc3ccnc(NC(=O)N4CCC(N5CCCCC5)CC4)c3)ccc21 [Example 47, N1-Methyl-5-(2-(((4-(piperidin-1-yl)piperidin-1-yl)carbonyl)amino)pyridin-4-yloxy)-1H-1-indolecarboxamide]	80.5	64.6	45.3	33.6
CNC(=O)n1ccc2cc(Oc3ccnc(NC(=O)N4CCOCC4)c3)ccc21 [Example 53, N4-(4-(1-(Methylamino)carbonyl-1H-5-indolyl)oxy-2-pyridyl)-4-morpholinecarboxamide]	73.1	60.4	48.4	37.9
